Laboratory results reported in patent US20230027295A1, “FXIA INHIBITORS AND PREPARATION METHOD THEREFOR AND PHARMACEUTICAL USE THEREOF” (Shenzhen Salubris Pharmaceuticals Co., Ltd., priority 2019, published 2023).

Key:
Human Factor VIIa = molecular target: T1, Human Factor VIIa (Homo sapiens, UniProt P08709); assay: Selectivity to coagulation factors: hFVIIa (substrate S-2288); format: biochemical
T1 construct: hFVIIa: Human Factor VIIa: hFVIIa 4591L; purchased hFVIIa 4591L
T1 sequence (P08709 213-466 limits assumed): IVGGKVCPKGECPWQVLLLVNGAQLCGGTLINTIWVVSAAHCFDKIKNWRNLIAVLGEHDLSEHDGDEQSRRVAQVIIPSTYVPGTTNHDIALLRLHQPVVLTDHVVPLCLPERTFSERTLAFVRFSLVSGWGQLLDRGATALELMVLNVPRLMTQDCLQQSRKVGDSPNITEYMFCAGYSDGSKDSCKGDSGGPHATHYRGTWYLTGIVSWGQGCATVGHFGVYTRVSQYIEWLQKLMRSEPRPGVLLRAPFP
T1 sequence (P08709 61-212 partner limits assumed): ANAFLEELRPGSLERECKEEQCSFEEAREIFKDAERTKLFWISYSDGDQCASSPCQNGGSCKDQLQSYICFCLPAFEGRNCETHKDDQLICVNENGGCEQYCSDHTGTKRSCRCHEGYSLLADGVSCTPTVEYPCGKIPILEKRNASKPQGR
Experimental: Example 52: Investigation of the Selectivity of the Compounds of the Present Invention to Coagulation Factors
Enzyme: hFXa: Human Factor Xa: 71nkat. hFIIa: HT5146L. hFVIIa: Human Factor VIIa: hFVIIa 4591L. kallikrein: LOT180223.
10 mM test compound dissolved in 100% DMSO was diluted with 100% DMSO to 1000, 200, 40, 8, 1.6 μM. 98 μL of enzyme solution was added to each well of a 96-well plate, while 98 μL of buffer was added to the blank wells. 2 μL of compounds of different concentrations were added, while the blank and control wells were added with DMSO instead. They were mixed with a shaker, and incubated at 37° C. for 20 min.
The concentrations of hFXa and S-2222™ were FXa (1:28) and 800 μmol/L, respectively. The concentrations of hFIIa and S-2238™ were hFIIa (0.06 U/ml) and 500 μmol/L, respectively. The concentrations of hFVIIa and S-2288™ were hFVIIa (80 nM) and 1600 μmol/L, respectively. The concentrations of kallikrein and substrate were kallikrein (20 nM) and 1600 μmol/L, respectively.
Finally, 100 μL substrate was added to each well, and its absorbance was measured at 405 nm.

CYP2C8 = molecular target: T2, CYP2C8 (Homo sapiens, UniProt P10632); assay: CYP enzyme inhibition in liver microsomes: CYP2C8; format: in vitro ADME; settings: 0.2 mg/mL liver microsomes
T2 construct: Liver microsomes (150-donor, Corning, Cat. 452117; Lot; 38292), NADPH; tissue Corning 452117; host or cells: liver microsomes, 150-donor pool
T2 sequence (P10632 1-490): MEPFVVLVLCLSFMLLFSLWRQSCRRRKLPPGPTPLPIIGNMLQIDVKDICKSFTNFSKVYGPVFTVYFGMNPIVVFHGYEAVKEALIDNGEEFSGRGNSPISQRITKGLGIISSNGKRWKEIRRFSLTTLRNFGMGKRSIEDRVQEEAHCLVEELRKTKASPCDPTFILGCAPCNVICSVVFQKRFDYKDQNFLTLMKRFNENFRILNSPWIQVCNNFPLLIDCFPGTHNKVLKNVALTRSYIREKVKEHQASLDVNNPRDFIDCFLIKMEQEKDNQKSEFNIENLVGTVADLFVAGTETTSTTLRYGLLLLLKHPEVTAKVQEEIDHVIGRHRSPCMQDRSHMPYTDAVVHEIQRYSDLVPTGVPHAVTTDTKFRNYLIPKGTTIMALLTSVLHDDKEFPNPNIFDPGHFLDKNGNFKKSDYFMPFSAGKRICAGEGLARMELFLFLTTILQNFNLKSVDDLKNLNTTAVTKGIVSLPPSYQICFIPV
Experimental: (§1) Example 55: Investigation of CYP Enzyme Inhibition by the Compounds of the Present Invention Liver microsomes (150-donor, Corning, Cat. 452117; Lot. 38292), NADPH. A 0.2 mg/mL microsome system was prepared, each test substance and substrate were added, and the final concentration of the test substance was 50 μM. After pre-incubating for 8 min, 10 mM NADPH was added to start the reaction, and the final concentration of NADPH was 1 mM. After a period of incubation, an internal standard such as methanol was added to stop the reaction. The amount of substrate metabolites generated in each reaction well was detected. Data processing: Taking the metabolite generation in the blank well as 100%, the reduction of metabolite generation in each well of the test substance was calculated, and the inhibition rate was calculated.

CYP3A5 = molecular target: T3, CYP3A5 (Homo sapiens, UniProt P20815); assay: CYP enzyme inhibition in liver microsomes: CYP3A5; format: in vitro ADME; settings: 0.2 mg/mL liver microsomes
T3 construct: Liver microsomes (150-donor, Corning, Cat. 452117; Lot; 38292), NADPH; tissue Corning 452117; host or cells: liver microsomes, 150-donor pool
Experimental: as §1

T3 sequence (P20815 whole entry): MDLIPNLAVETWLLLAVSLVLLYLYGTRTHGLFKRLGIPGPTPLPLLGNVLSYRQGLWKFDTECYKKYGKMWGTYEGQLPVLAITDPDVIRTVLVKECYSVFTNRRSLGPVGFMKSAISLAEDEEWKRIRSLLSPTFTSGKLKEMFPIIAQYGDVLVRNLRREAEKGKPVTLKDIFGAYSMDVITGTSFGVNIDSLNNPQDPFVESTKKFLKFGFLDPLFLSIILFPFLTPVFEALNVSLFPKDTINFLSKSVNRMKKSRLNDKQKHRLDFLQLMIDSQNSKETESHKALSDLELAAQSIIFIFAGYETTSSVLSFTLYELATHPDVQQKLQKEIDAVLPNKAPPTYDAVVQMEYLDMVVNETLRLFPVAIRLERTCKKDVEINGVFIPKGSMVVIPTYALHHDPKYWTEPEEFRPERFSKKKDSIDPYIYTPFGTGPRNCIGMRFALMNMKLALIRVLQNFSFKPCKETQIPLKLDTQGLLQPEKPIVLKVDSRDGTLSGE

| IC50 (Human Factor VIIa) | IC50 (CYP2C8) | IC50 (CYP3A5) | SMILES |
| --- | --- | --- | --- |
| > 100 µM | ~50 µM | > 50 µM | COc1nn([C@@H](Cc2ccccc2)C(=O)Nc2ccc(C(=O)O)cc2)c(=O)cc1-c1cc(Cl)ccc1C(C)=O [Example 19, (S)-4-(2-(4-(2-acetyl-5-chlorophenyl)-3-methoxy-6-oxopyridazin-1(6H)-yl)-3-phenylpropanamido)benzoic acid] |
| > 100 µM | ~30 µM | > 50 µM | CCC(=O)c1ccc(Cl)cc1-c1cc(=O)n([C@@H](Cc2ccccc2)C(=O)Nc2ccc(C(=O)O)cc2)nc1OC [Example 32] |
